Results on 26 molecules are retold here after patent US20050004186A1, “MEK inhibiting compounds” (Pfizer Inc, priority 2002, published 2005).

Counter-ions that a name gives are not always drawn.

The test system of one series is MEK. Description: Cellular assay for measuring MEK inhibition, C26CPA1 (inhibition of ERK phosphorylation in C26 cells). The class given is cell-based, murine. The note with it: for IC50: murine colon 26 (C26) carcinoma cells, one hour at 37 C; for C26CPA1 % Inhibition @ 0.1 μM / C26CPA1 % Inhibition @ 1 μM: C26 cells. The method, then: Cellular Assay for Measuring MEK Inhibition
MEK inhibitors were evaluated by determining their ability to inhibit phosphorylation of MAP kinase (ERK) in murine colon 26 (C26) carcinoma cells. Since ERK1 and ERK2 represent the only known substrates for MEK1 and MEK2, the measurement of inhibition of ERK phosphorylation in cells provides direct read out of cellular MEK inhibition by the compounds of the invention. Detection of phosphorylation of ERK was carried out either by Western blot or ELISA format. Briefly, the assays involve treatment of exponentially growing C26 cells with varying concentrations of the test compound (or vehicle control) for one hour at 37≡ C. For Western blot assay, cells were rinsed free of compound/vehicle and lysed in a solution containing 70 mM NaCl, 50 mM glycerol phosphate, 10 mM HEPES, […], 1% Triton X-100, 1 mM Na3VO4, 100 μM PMSF, 10 μM leupeptin and 10 μM pepstatin. Supernatants were then subjected to gel electrophoresis and hybridized to a primary antibody recognizing dually phosphorylated ERK1 and ERK2. To evaluate total MAPK levels, blots were subsequently ‘stripped’ and re-probed with a 1:1 mixture of polyclonal antibodies recognizing unphosphorylated ERK1 and ERK2. For pERK ELISA assay, pERK TiterZyme Enzyme immunometric Assay kits were acquired from Assay Designs, Inc (Ann Arbor, Mich.). Briefly, cells were harvested in lysis solution containing 50 mM β-glycerophosphate, 10 mM HEPES, pH7.4, 70 mM NaCl, 2 mM EDTA and 1% SDS and protein lysates were diluted 1:15 with supplied Assay buffer prior to the execution of the assay. The subsequent steps were carried out essentially as recommended by the manufacturer.

For `CN(C)CCCN(C)c1nnc(-c2ccc(F)c(F)c2Nc2ccc(I)cc2F)o1` (as salt: hydrochloride) [Example 12, N-{5-[3,4-Difluoro-2-(2-fluoro-4-iodo-phenylamino)-phenyl]-[1,3,4]oxadiazol-2-yl}-N,N′,N′-trimethyl-propane-1,3-diamine], the melting point was 123 to 126 °C.

Molecule `Fc1cc(I)ccc1Nc1c(-c2nnc(NCCN3CCCCC3)o2)ccc(F)c1F` (as salt: hydrochloride) [Example 13, {5-[3,4-Difluoro-2-(2-fluoro-4-iodo-phenylamino)-phenyl]-[1,3,4]oxadiazol-2-yl}-(2-piperidin-1-yl-ethyl)-amine] registered a melting point of 191 to 193 °C.

`NCCCCNc1nnc(-c2ccc(F)c(F)c2Nc2ccc(I)cc2F)o1` (as salt: hydrochloride) [Example 14, N′1′-{5-[3,4-Difluoro-2-(2-fluoro-4-iodo-phenylamino)-phenyl]-[1,3,4]oxadiazol-2-yl}-butane-1,4-diamine] showed a melting point of 157 to 159 °C.

Consider `NCCCNc1nnc(-c2ccc(F)c(F)c2Nc2ccc(I)cc2F)o1` (as salt: hydrochloride) [Example 15, N′1′-{5-[3,4-Difluoro-2-(2-fluoro-4-iodo-phenylamino)-phenyl]-[1,3,4]oxadiazol-2-yl}-propane-1,3-diamine], for which the melting point lay within 173 to 176 °C.

In turn, `CN(C)CCCNc1nnc(-c2ccc(F)c(F)c2Nc2ccc(I)cc2F)o1` (as salt: hydrochloride) [Example 16, N-{5-[3,4-Difluoro-2-(2-fluoro-4-iodo-phenylamino)-phenyl]-[1,3,4]oxadiazol-2-yl}-N′,N′-dimethyl-propane-1,3-diamine] yielded a melting point of 168 to 170 °C.

`CN(C)CCNc1nnc(-c2ccc(F)c(F)c2Nc2ccc(I)cc2F)o1` (as salt: hydrochloride) [Example 17, N-{5-[3,4-Difluoro-2-(2-fluoro-4-iodo-phenylamino)-phenyl]-[1,3,4]oxadiazol-2-yl}-N′,N′-dimethyl-ethane-1,2-diamine] had a melting point of 184 to 187 °C.

`CNCCNc1nnc(-c2ccc(F)c(F)c2Nc2ccc(I)cc2F)o1` (as salt: hydrochloride) [Example 18, N-{5-[3,4-Difluoro-2-(2-fluoro-4-iodo-phenylamino)-phenyl]-[1,3,4]oxadiazol-2-yl}-N′-methyl-ethane-1,2-diamine] gave a melting point of 173 to 175 °C.

Molecule `NCCNc1nnc(-c2ccc(F)c(F)c2Nc2ccc(I)cc2F)o1` (as salt: salt) [Example 11, N′1′-{5-[3,4-Difluoro-2-(2-fluoro-4-iodo-phenylamino)-phenyl]-[1,3,4]oxadiazol-2-yl}-ethane-1,2-diamine] came in with a melting point of 156 to 158 °C.

Molecule `Nc1nnc(-c2ccc(F)c(F)c2Nc2ccc(I)cc2F)o1` [Example 1, 5-[3,4-Difluoro-2-(2-fluoro-4-iodo-phenylamino)-phenyl]-[1,3,4]oxadiazol-2-ylamine] gave a melting point of 248 to 249 °C. The half-inhibitory concentration (IC50) in the series with MEK was determined as 0.04 µM.

As for `CCNc1nnc(-c2ccc(F)c(F)c2Nc2ccc(I)cc2F)o1` [Example 4, {5-[3,4-Difluoro-2-(2-fluoro-4-iodo-phenylamino)-phenyl]-[1,3,4]oxadiazol-2-yl}-ethyl-amine], the melting point was in the range of 188 to 189 °C. In the series on MEK, this molecule yielded a concentration for half-maximal inhibition (IC50) of 0.089 µM.

Molecule `C=CCNc1nnc(-c2ccc(F)c(F)c2Nc2ccc(I)cc2F)o1` [Example 5, Allyl-{5-[3,4-difluoro-2-(2-fluoro-4-iodo-phenylamino)-phenyl]-[1,3,4]oxadiazol-2-yl}-amine] had a melting point of 175 to 178 °C. This molecule registered an IC50 with MEK of 0.009 µM.

As for `COc1ccc(Nc2nnc(-c3ccc(F)c(F)c3Nc3ccc(I)cc3F)o2)c(OC)c1` [Example 6, {5-[3,4-Difluoro-2-(2-fluoro-4-iodo-phenylamino)-phenyl]-[1,3,4]oxadiazol-2-yl}-(2.4-dimethoxy-phenyl)-amine], the melting point fell in the range of 185 to 186 °C. In the series with MEK, the half-maximal inhibitory concentration (IC50) was over 1 µM.

In turn, `CN(C)c1ccc(Nc2nnc(-c3ccc(F)c(F)c3Nc3ccc(I)cc3F)o2)cc1` [Example 7, N-{5-[3,4-Difluoro-2-(2-fluoro-4-iodo-phenylamino)-phenyl]-[1,3,4]oxadiazol-2-yl}-N′,N′-dimethyl-benzene-1,4-diamine] had a melting point of 230 to 233 °C. In the series with MEK, this molecule returned a 50% inhibitory concentration (IC50) of over 1 µM.

`OCC(O)CNc1nnc(-c2ccc(F)c(F)c2Nc2ccc(I)cc2F)o1` (stereo not shown) [Example 8, 3-{5-[3,4-Difluoro-2-(2-fluoro-4-iodo-phenylamino)-phenyl]-[1,3,4]oxadiazol-2-ylamino}-propane-1,2-diol] gave a melting point of 157 to 159 °C. Also, in the series with MEK, the IC50 is 0.067 µM.

`CCN(CC)CCCNc1nnc(-c2ccc(F)c(F)c2Nc2ccc(I)cc2F)o1` [Example 10, N-{5-[3,4-Difluoro-2-(2-fluoro-4-iodo-phenylamino)-phenyl]-[1,3,4]oxadiazol-2-yl}-N′,N′-diethyl-propane-1,3-diamine] came in with a melting point of 116 to 118 °C. The molecule further gave a 50% inhibitory concentration (IC50) in the series with MEK of 0.153 µM.

In turn, `OCCCNc1nnc(-c2ccc(F)c(F)c2Nc2ccc(I)cc2F)o1` [Example 30, 3-{5-[3,4-Difluoro-2-(2-fluoro-4-iodo-phenylamino)-phenyl]-[1,3,4]oxadiazol-2-ylamino}-propan-1-ol] yielded a melting point of 154 to 155 °C.

On to `C=CCNc1nnc(-c2ccc(F)c(F)c2Nc2ccc(CC)cc2F)o1` [Example 70, Allyl-{5-[2-(4-ethyl-2-fluoro-phenylamino)-3,4-difluoro-phenyl]-[1,3,4]oxadiazol-2-yl}-amine], for which the melting point lay within 120 to 123 °C.

On to `CCc1ccc(Nc2c(-c3nnc(N4CCN(C)CC4)o3)ccc(F)c2F)c(F)c1` [Example 112, {2,3-Difluoro-6-[5-(4-methyl-piperazin-1-yl)-1,3,4-oxadiazol-2-yl]-phenyl}-(4-ethyl-2-fluoro-phenyl)-amine], for which, in the series with MEK, the “C26CPA1 % Inhibition @ 0.1 μM” value was 62.6% and the “C26CPA1 % Inhibition @ 1 μM” value is 84%.

`CCc1ccc(Nc2c(-c3nnc(NCCc4cccs4)o3)ccc(F)c2F)c(F)c1` [Example 114, {5-[2-(4-Ethyl-2-fluoro-phenylamino)-3,4-difluoro-phenyl]-1,3,4-oxadiazol-2-yl}-(2-thiophen-2-yl-ethyl)-amine]: in the series on MEK, the “C26CPA1 % Inhibition @ 0.1 μM” value is 35.4% and the “C26CPA1 % Inhibition @ 1 μM” value worked out at 46.3%.

As to `CCc1ccc(Nc2c(-c3nnc(N(C)CCS(C)(=O)=O)o3)ccc(F)c2F)c(F)c1` [Example 121, {5-[2-(4-Ethyl-2-fluoro-phenylamino)-3,4-difluoro-phenyl]-1,3,4-oxadiazol-2-yl}-(2-methanesulfonyl-ethyl)-methyl-amine], in the series with MEK, the “C26CPA1 % Inhibition @ 0.1 μM” value is 0% and the “C26CPA1 % Inhibition @ 1 μM” value is on record as 26.9%.

Take `CCc1ccc(Nc2c(-c3nnc(N4CCN(Cc5ccccn5)CC4)o3)ccc(F)c2F)c(F)c1` [Example 123, {2,3-Difluoro-6-[5-(4-pyridin-2-ylmethyl-piperazin-1-yl)-1,3,4-oxadiazol-2-yl]-phenyl}-(4-ethyl-2-fluoro-phenyl)-amine]: in the series on MEK, the “C26CPA1 % Inhibition @ 0.1 μM” value worked out at 0% and the “C26CPA1 % Inhibition @ 1 μM” value is 0%.

In the case of `CCc1ccc(Nc2c(-c3nnc(N(C)CCc4ccccn4)o3)ccc(F)c2F)c(F)c1` [Example 127, {5-[2-(4-Ethyl-2-fluoro-phenylamino)-3,4-difluoro-phenyl]-1,3,4-oxadiazol-2-yl}-methyl-(2-pyridin-2-yl-ethyl)-amine], in the series with MEK, the “C26CPA1 % Inhibition @ 0.1 μM” value was 0% and the “C26CPA1 % Inhibition @ 1 μM” value turned out to be 0%.

Consider `CCc1ccc(Nc2c(-c3nnc(NCC(c4cccnc4)N4CCOCC4)o3)ccc(F)c2F)c(F)c1` (stereo not shown) [Example 128, {5-[2-(4-Ethyl-2-fluoro-phenylamino)-3,4-difluoro-phenyl]-1,3,4-oxadiazol-2-yl}-(2-morpholin-4-yl-2-pyridin-3-yl-ethyl)-amine], for which, in the series with MEK, the “C26CPA1 % Inhibition @ 0.1 μM” value was found to be 0% and the “C26CPA1 % Inhibition @ 1 μM” value is on record as 0%.

Consider `CCc1ccc(Nc2c(-c3nnc(NC(C)Cc4ccsc4)o3)ccc(F)c2F)c(F)c1` (stereo not shown) [Example 137, {5-[2-(4-Ethyl-2-fluoro-phenylamino)-3,4-difluoro-phenyl]-1,3,4-oxadiazol-2-yl}-(1-methyl-2-thiophen-3-yl-ethyl)-amine], for which, in the series with MEK, the “C26CPA1 % Inhibition @ 0.1 μM” value came out at 72.1% and the “C26CPA1 % Inhibition @ 1 μM” value worked out at 85.3%.

Regarding `CCc1ccc(Nc2c(-c3nnc(CC)o3)ccc(F)c2F)c(F)c1` [Example 142, (4-Ethyl-2-fluoro-phenyl)-[6-(5-ethyl-[1,3,4]oxadiazol-2-yl)-2,3-difluoro-phenyl]-amine], the melting point fell in the range of 82 to 83 °C.

As for `CNCCNc1nnc(-c2ccc(F)c(F)c2Nc2ccc(CCO)cc2F)o1` [Example 167, 2-(4-{2,3-difluoro-6-[5-(2-methylamino-ethylamino)-1[1,3,4]oxadiazol-2-yl]-phenylamino}-3-fluoro-phenyl)-ethanol], in the series with MEK, the IC50 amounted to 0.91 µM.
